Experimental data taken from PubChem BioAssay AID1259411 (Chemical Carcinogenesis Research Information System (CCRIS), 2018).
Activity calls are given as the source filed them. No rule for the calls is given here.

Tested on: rodent carcinogenicity bioassays, tumor incidence
Test: CCRIS carcinogenicity studies
In short: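 Archive of carcinogenicity, mutagenicity, tumor promotion and tumor inhibition results drawn from journals, NCI reports and other sources, expert-reviewed; covers 1985-2011 and is no longer updated.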

SMILES: OC1c2ccc3cc4ccccc4nc3c2C2OC2C1O (stereo not given)
- carcinogen call (Species: MOUSE, Strain/Sex: SWISS/FEMALE, Route: INTRAPERITONEAL, Dose: 0, 0.5 UMOL GIVEN AS 70 NMOL IN 5 µL DMSO WITHIN 24 HR OF BIRTH, 140 NMOL IN 10 µL DMSO ON D 8 OF LIFE, AND 280 NMOL IN, Tumor Site: Type of Lesion: LUNG: ADENOMA): active; positive
- carcinogen call (Species: MOUSE, Strain/Sex: SWISS/FEMALE, Route: INTRAPERITONEAL, Dose: 0, 1.05 UMOL GIVEN AS 150 NMOL IN 5 µL DMSO WITHIN 24 HR OF BIRTH, 300 NMOL IN 10 µL DMSO ON D 8 OF LIFE, AND 600 NMOL I, Tumor Site: Type of Lesion: LUNG: ADENOMA): active; positive
- carcinogen call (Species: MOUSE, Strain/Sex: SWISS/MALE, Route: INTRAPERITONEAL, Dose: 0, 0.5 UMOL GIVEN AS 70 NMOL IN 5 µL DMSO WITHIN 24 HR OF BIRTH, 140 NMOL IN 10 µL DMSO ON D 8 OF LIFE, AND 280 NMOL IN, Tumor Site: Type of Lesion: LUNG: ADENOMA, LIVER: NEOPLASTIC NODULE): active; positive
- carcinogen call (Species: MOUSE, Strain/Sex: SWISS/MALE, Route: INTRAPERITONEAL, Dose: 0, 1.05 UMOL GIVEN AS 150 NMOL IN 5 µL DMSO WITHIN 24 HR OF BIRTH, 300 NMOL IN 10 µL DMSO ON D 8 OF LIFE, AND 600 NMOL I, Tumor Site: Type of Lesion: LUNG: ADENOMA, LIVER: NEOPLASTIC NODULE): active; positive

SMILES: ClC1(Cl)C2(Cl)C3(Cl)C4(Cl)C(Cl)(Cl)C5(Cl)C3(Cl)C1(Cl)C5(Cl)C24Cl (stereo not given)
- carcinogen call (Species: MOUSE, Strain/Sex: B6AKF1/MALE,FEMALE, Route: GAVAGE/ORAL, Dose: 10 MG/KG FROM D 7- 28 OF LIFE THEN 26 PPM IN DIET, Tumor Site: Type of Lesion: LIVER: HEPATOMA): active; positive
- carcinogen call (Species: MOUSE, Strain/Sex: B6C3F1/MALE,FEMALE, Route: GAVAGE/ORAL, Dose: 10 MG/KG FROM D 7- 28 OF LIFE THEN 26 PPM IN DIET, Tumor Site: Type of Lesion: LIVER: HEPATOMA): active; positive
- carcinogen call (Species: RAT, Route: ORAL, Tumor Site: Type of Lesion: LIVER): active; positive
- carcinogen call (Species: RAT, Strain/Sex: F344/FEMALE, Route: ORAL, Dose: 0, 0.1, 1, 10, 25, 50 PPM IN FEED FOR 104 WK (STUDY DURATION: 105 WK), Dose: 0, 0.1, 1, 10, 25, 50 PPM IN FEED FOR 104 WK (STUDY DURATION: 105 WK), Tumor Site: Type of Lesion: HEMATOPOIETIC SYSTEM: MONONUCLEAR CELL LEUKEMIA): active; positive
- carcinogen call (Species: RAT, Strain/Sex: F344/FEMALE, Route: ORAL, Dose: 0, 50, 100 PPM IN FEED FOR 104 WK (STUDY DURATION: 106 WK), Dose: 0, 50, 100 PPM IN FEED FOR 104 WK (STUDY DURATION: 106 WK), Tumor Site: Type of Lesion: HEMATOPOIETIC SYSTEM: MONONUCLEAR CELL LEUKEMIA, LIVER: NEOPLASTIC NODULE, NEOPLASTIC NODULE OR HEPATOCELLULAR CARCINOMA): active; positive
- carcinogen call (Species: RAT, Strain/Sex: F344/MALE, Route: ORAL, Dose: 0, 0.1, 1, 10, 25, 50 PPM IN FEED FOR 104 WK (STUDY DURATION: 105 WK), Dose: 0, 0.1, 1, 10, 25, 50 PPM IN FEED FOR 104 WK (STUDY DURATION: 105 WK), Tumor Site: Type of Lesion: LIVER: NEOPLASTIC NODULE, NEOPLASTIC NODULE OR HEPATOCELLULAR CARCINOMA, ADRENAL GLAND: PHEOCHROMOCYTOMA, PHEOCHROMOCYTO): active; positive

SMILES: NCC1(CC(=O)O)CCCCC1
- carcinogen call (Species: RAT, Strain/Sex: WISTAR/FEMALE, Route: ORAL, Dose: 0, 250, 1000, 2000 MG/KG IN DIET FOR 104 WK (STUDY DURATION: 104 WK), Dose: 0, 250, 1000, 2000 MG/KG IN DIET FOR 104 WK (STUDY DURATION: 104 WK)): inactive; negative
- carcinogen call (Species: RAT, Strain/Sex: WISTAR/MALE, Route: ORAL, Dose: 0, 250, 1000, 2000 MG/KG IN DIET FOR 104 WK (STUDY DURATION: 104 WK), Dose: 0, 250, 1000, 2000 MG/KG IN DIET FOR 104 WK (STUDY DURATION: 104 WK), Tumor Site: Type of Lesion: PANCREAS: ACINAR CELL ADENOMA, ACINAR CELL CARCINOMA): active; positive

SMILES: O=c1cc(CO)occ1O
- carcinogen call (Species: MOUSE, Strain/Sex: B6C3F1/FEMALE, Route: ORAL, Dose: 0, 1.5, 3% IN DIET FOR 20 MONTHS (STUDY DURATION: 20 MONTHS), Dose: 0, 1.5, 3% IN DIET FOR 20 MONTHS (STUDY DURATION: 20 MONTHS), Tumor Site: Type of Lesion: THYROID: ADENOMA. LIVER: HEPATOMA): active; positive
- carcinogen call (Species: MOUSE, Strain/Sex: B6C3F1/MALE, Route: ORAL, Dose: 0, 1.5, 3% IN DIET FOR 20 MONTHS (STUDY DURATION: 20 MONTHS), Dose: 0, 1.5, 3% IN DIET FOR 20 MONTHS (STUDY DURATION: 20 MONTHS), Tumor Site: Type of Lesion: THYROID: ADENOMA): active; positive
- carcinogen call (Species: Rat, Strain/Sex: F344/Male (20/experimental group (10 killed at 31 wk & 10 killed at 44 wk); 15/controls), Route: Oral, Dose: Kojic acid at 2.0% in drinking water for 31 wk, recovery for 13 wk, study duration 44 wk, Dose: Kojic acid at 2.0% in drinking water for 31 wk, recovery for 13 wk, study duration 44 wk, Tumor Site: Type of Lesion: Thyroid: 1 adenoma at 44 wk): inactive; negative (however, significantly greater increase in thyroid follicular cell hyp

SMILES: c1ccc2c(c1)c1c(c3cccnc32)O1
- carcinogen call (Species: MOUSE, Strain/Sex: CD-1/FEMALE, Route: INTRAPERITONEAL, Dose: 0, 5, 10 AND 20 µL OF A 0.05 MOLAR SOLUTION ON DAYS 1, 8 AND 15 OF LIFE RESPECTIVELY (TOTAL DOSE: 1.75 UMOL) (STUDY DURA, Dose: 0, 5, 10 AND 20 µL OF A 0.05 MOLAR SOLUTION ON DAYS 1, 8 AND 15 OF LIFE RESPECTIVELY (TOTAL DOSE: 1.75 UMOL) (STUDY DURA): inactive; negative
- carcinogen call (Species: MOUSE, Strain/Sex: CD-1/MALE, Route: INTRAPERITONEAL, Dose: 0, 5, 10 AND 20 µL OF A 0.05 MOLAR SOLUTION ON DAYS 1, 8 AND 15 OF LIFE RESPECTIVELY (TOTAL DOSE: 1.75 UMOL) (STUDY DURA, Dose: 0, 5, 10 AND 20 µL OF A 0.05 MOLAR SOLUTION ON DAYS 1, 8 AND 15 OF LIFE RESPECTIVELY (TOTAL DOSE: 1.75 UMOL) (STUDY DURA): inactive; negative

SMILES: Cc1nn(C)c(Oc2ccccc2)c1/C=N/OCc1ccc(C(=O)OC(C)(C)C)cc1
- carcinogen call (Species: Mouse, Strain/Sex: ICR (Crj:CD-1)/Female (50/Group), Route: Oral, Dose: 0, 25, 100, 400, 800 ppm (0; 2.4; 10.2; 41.4; 73.1 mg/kg/day) for 18 mo, study duration 18 mo, Dose: 0, 25, 100, 400, 800 ppm (0; 2.4; 10.2; 41.4; 73.1 mg/kg/day) for 18 mo, study duration 18 mo): inactive; negative
- carcinogen call (Species: Mouse, Strain/Sex: ICR (Crj:CD-1)/Male (50/Group), Route: Oral, Dose: 0, 25, 100, 400, 800 ppm (0; 2.4; 9.5; 38.0; 69.6 mg/kg/day) for 18 mo, study duration 18 mo, Dose: 0, 25, 100, 400, 800 ppm (0; 2.4; 9.5; 38.0; 69.6 mg/kg/day) for 18 mo, study duration 18 mo): inactive; negative
- carcinogen call (Species: Rat, Strain/Sex: CD/Female (50/Group), Route: Oral, Dose: 0, 10, 25, 75, 150 ppm of 97.2% fenpyroximate (0; 0.49; 1.21; 3.81; 8.01 mg/kg/day) for 104 wk, study duration 104 wk, Dose: 0, 10, 25, 75, 150 ppm of 97.2% fenpyroximate (0; 0.49; 1.21; 3.81; 8.01 mg/kg/day) for 104 wk, study duration 104 wk): inactive; negative
- carcinogen call (Species: Rat, Strain/Sex: CD/Male (50/Group), Route: Oral, Dose: 0, 10, 25, 75, 150 ppm of 97.2% fenpyroximate (0; 0.40; 0.97; 3.00; 6.20 mg/kg/day) for 104 wk, study duration 104 wk, Dose: 0, 10, 25, 75, 150 ppm of 97.2% fenpyroximate (0; 0.40; 0.97; 3.00; 6.20 mg/kg/day) for 104 wk, study duration 104 wk): inactive; negative

SMILES: CI
- carcinogen call (Species: MOUSE, Route: INTRAPERITONEAL, Tumor Site: Type of Lesion: LUNG): active; positive
- carcinogen call (Species: RAT, Route: SUBCUTANEOUS, Tumor Site: Type of Lesion: INJECTION SITE): active; positive
- carcinogen call (Species: Rat, Strain/Sex: Crl:CD(SD)IGS BR/Female (50/Group), Route: Inhalation (whole body), Dose: 0, 5, 20, 60 ppm for 2 yr, study duration 2 yr, Dose: 0, 5, 20, 60 ppm for 2 yr, study duration 2 yr, Tumor Site: Type of Lesion: Thyroid: follicular cell adenoma (60 ppm)): active; positive
- carcinogen call (Species: Rat, Strain/Sex: Crl:CD(SD)IGS BR/Male (50/Group), Route: Inhalation (whole body), Dose: 0, 5, 20, 60 ppm for 2 yr, study duration 2 yr, Dose: 0, 5, 20, 60 ppm for 2 yr, study duration 2 yr, Tumor Site: Type of Lesion: Thyroid: follicular cell adenoma (60 ppm)): active; positive
